According to patent publication US5861424A, “Composition and method for treating cancer” (priority 1995, dated 1999):
Like-named read-outs stand apart in the source and are kept apart here.

Columns and labels:
[1] = tested on: normal monkey kidney epithelial cell line CV-1; assay: Colony formation assay, normal monkey kidney epithelial cells CV-1; settings: for IC50: Primates, Epithelial cell; for CV-1 (IC50): Table III;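 on all read-outs here: colonies visualized by crystal violet staining, incubation at 37 °C, IC50 relative to untreated wells given culture medium alone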
[2] = tested on: human colon carcinoma cell line CX-1; assay: Colony formation assay, human colon carcinoma CX-1; format: cell-based; settings: for IC50: Homo sapiens, Colon carcinoma cell; for IC50 / CX-1 (IC50): 24 h treatment, colony count after 7 to 10 days; for Selectivity (ratio of IC50 for CV-1 and IC50 for CX-1): CV-1/CX-1
[3] = read-out: CV-1 (IC50), Table III, 24 h treatment, colony count after 7 to 10 days
[4] = read-out: CX-1 (IC50), Table III
[5] = Table III, read-out: CX-1 (IC50)
[6] = 24 h treatment, colony count after 7 to 10 days

SMILES	IC50 [1, 3] [µg/mL]	IC50 [2, 4] [µg/mL]	Selectivity (ratio of IC50 for CV-1 and IC50 for CX-1) ([2]; Table III)	IC50 [2, 5] [µg/mL]	IC50 ([1]; read-out: CV-1 (IC50)) [µg/mL]	CX-1 (IC50) ([2]; Table III) [µg/mL]	CV-1 (IC50) [1, 6] [µg/mL]
CCOc1ccc2c(c1)C=CC(=CC=c1sc(=Cc3sc4c5ccccc5ccc4[n+]3CC)n(CC)c1=O)N2CC [Compound 252]	> 20	0.1	> 200	–	–	–	–
CCN1C(=CC=c2sc(=Cc3sc4c5ccccc5ccc4[n+]3CC)n(CC)c2=O)C=Cc2cc(Cl)ccc21 [Compound 253]	> 20	–	> 500	0.04	–	–	–
CCN1C(=CC=c2sc(=Cc3sc4c5ccccc5ccc4[n+]3CC)n(CC)c2=O)C=Cc2cc(C)ccc21 [Compound 254]	–	0.1	100	–	10	–	–
CCN1C=CC(=CC=c2sc(=Cc3sc4ccc5ccccc5c4[n+]3CC)n(CC)c2=O)c2ccccc21 [Compound 307]	3	–	150	0.02	–	–	–
CCN1C=CC(=CC=c2sc(=Cc3sc4ccccc4[n+]3CC)n(CC)c2=O)C=C1 [Compound 317]	20	0.2	100	–	–	–	–
CCn1c(=Cc2sc3cc(Cl)c(Cl)cc3[n+]2CC)sc(=CC=C2Sc3ccc4ccccc4c3N2C)c1=O [Compound 383]	20	0.1	200	–	–	–	–
CCn1c(=Cc2cccc[n+]2CC)sc(=CC=C2Sc3ccc4ccccc4c3N2C)c1=O [Compound 385]	20	0.2	100	–	–	–	–
CCN1C(C)=CSC1=CC=c1sc(=C2CCC[n+]3c2sc2ccccc23)n(CC)c1=O [Compound 386]	–	0.1	100	–	10	–	–
CCN1C(C)=CSC1=CC=c1sc(=Cc2oc3cc(C)c(C)cc3[n+]2CC)n(CC)c1=O [Compound 388]	–	0.03	261	–	8	–	–
CCN1C(C)=CSC1=CC=c1sc(=C2CCC[n+]3c2sc2ccccc23)n(CC)c1=O [Compound 389]	15	–	188	–	–	0.08	–
CCN1CCSC1=CC=c1sc(=Cc2oc3c4ccccc4ccc3[n+]2CC)n(CC)c1=O [Compound 390]	20	0.08	250	–	–	–	–
CCN1CCSC1=CC=c1sc(=Cc2oc3cc(Cl)c(Cl)cc3[n+]2CC)n(CC)c1=O [Compound 391]	–	–	114	0.07	8	–	–
CCN1C(=CC=c2sc(=Cc3cc[n+](CC)c4ccccc34)n(CC)c2=O)C=Cc2ccccc21 [Compound 392]	–	–	286	–	–	0.01	20
CCN1C(=CC=c2sc(=Cc3cc[n+](CC)c4ccccc34)n(CC)c2=O)C=Cc2ccccc21 [Compound 393]	–	–	400	–	–	0.05	20
CCN1C(=CC=c2sc(=CC3=[N+](CC)CCS3)n(CC)c2=O)C=Cc2ccccc21 [Compound 394]	–	0.08	125	–	10	–	–
CCN1C(=CC=c2sc(=Cc3cc[n+](CC)c4ccccc34)n(CC)c2=O)C=Cc2cc(Cl)ccc21 [Compound 395]	20	–	100	–	–	0.2	–
CCN1C(=CC=c2sc(=Cc3cc[n+](CC)c4ccccc34)n(CC)c2=O)C=Cc2cc(Cl)ccc21 [Compound 396]	–	–	250	–	–	0.08	–
CCN1C=C(C)C=CC1=CC=c1sc(=Cc2sc3cc(C)c(C)cc3[n+]2CC)n(CC)c1=O [Compound 397]	20	–	400	0.05	–	–	–
CCN1C=CC=CC1=CC=c1sc(=Cc2sc3ccc4ccccc4c3[n+]2CC)n(CC)c1=O [Compound 398]	16	–	400	0.04	–	–	–
CCCCC[n+]1c(C=c2sc(=CC=C3SC=C(C)N3CC)c(=O)n2CC)sc2cc(OC)c(OC)cc21 [Compound 399]	–	0.1	100	–	10	–	–
CCN1C(=CC=c2sc(=CC3=[N+](CC)CCS3)n(CC)c2=O)C=Cc2ccccc21 [Compound 400]	> 20	–	> 250	–	–	–	–
